Measured values as given in patent US20090209503A1, “COLONIC DELIVERY THERAPEUTIC AGENTS FOR INFLAMMATORY BOWEL DISEASE” (AJINOMOTO CO. INC., priority 2005, published 2009).
Values joined by “and” are separate entries in the source; they are usually repeats but may differ in a detail not shown here. Identical values can stand only once.

Tests used:
[1] = tested on: DSS model in mice (ulcerative colitis developed by 5% DSS water); experiment: Drug efficacy test by enema administration of glutamine on DSS model in mice; type: in vivo, mouse; conditions: sixth day after start of drinking DSS water, FIG. 1
Method: 5% DSS water (dissolving dextran sulfate sodium in tap water) was drank ad lib by a male C57BL/6 Cr Slc mouse of 8 weeks old, and it developed ulcerative colitis. From one day before starting drinking of DSS water, L-glutamine was administered via the large intestinal route to the mouse once a day. An enema agent (solution) having the composition of 0.5% (w/v) carboxymethylcellulose—sodium was used as the enema agent. As the disease activity index, each average value of body weight scores, blood feces scores and diarrhea scores was calculated referring to the report of HS. Cooper et al. (Laboratory Investigation 1993; 69(2): 238).

[2] = tested on: patients with ulcerative colitis; experiment: Comparative Example 1: 10 g L-glutamine via the large intestinal route, frequencies of bowel movements and diarrhea; type: in vivo, humans
Method: 10 g of L-glutamine was added to 60 mL of “Predonema®” Enema, and the mixture was administered via the large intestinal route to patients with ulcerative colitis. The frequencies of bowel movements and diarrhea were measured. […] Meanwhile, the patients were treated with “Predonema®” from Day 1 to Day 14, and 60 mL of “Predonema®” Enema prepared by adding 10 g of L-glutamine thereto was administered via the large intestinal route to the patients from Day 15 to Day 28.

[3] = tested on: patients with ulcerative colitis; experiment: Example 1: 2 g L-glutamine enema, frequencies of bowel movements and diarrhea, blood feces scores; type: in vivo, humans; set-up: key to Blood feces score, Aft. admin.: blood feces score averaged per day: 0 = none, 1 = less, 3 = a lot
Method: Further, 60 mL of an enema agent prepared by adding 2 g of L-glutamine to sterilized water was administered via the large intestinal route to the patients with ulcerative colitis having the same symptoms as mentioned above (Case Nos. 5 and 9 to 14).
In addition, the patients with ulcerative colitis of Comparative Example and Example take a 5-ASA agent(s) (“Pentasas” or “Salazopyrin®”) as an oral agent conforming to dosage and administration.
The frequencies of bowel movements and diarrhea, and blood feces scores were measured of these patients.

rat models of TNBS = conditions: 0.25 to 0.4 g/kg via the large intestinal route; Non-patent Literatures 13 and 14; cited from earlier work
[4] = tested on: epithelial injuries in the upper digestive tracts such as the stomach and the duodenum; conditions: dose of about 2 g a day; Non-patent Literatures 8 and 9; cited from earlier work
[5] = 2 g L-glutamine enema, with or without Predonema
[6] = 2 g L-glutamine enema, oral 5-ASA agent

NC(=O)CC[C@H](N)C(=O)O [Gln, L-glutamine]
disease activity index (average of body weight, blood feces and diarrhea scores) versus vehicle-treated group ([1]; 30 mg/kg once a day via the large intestinal route): no significant difference
disease activity index (average of body weight, blood feces and diarrhea scores) versus vehicle-treated group ([1]; 100 mg/kg once a day via the large intestinal route): no significant difference
frequency of bowel movements ([2]; 10 g L-glutamine added to 60 mL Predonema Enema, Day 15 to Day 28, after Predonema alone Day 1 to Day 14, oral 5-ASA agent, FIG. 2): increased
blood feces (observation of feces) ([2]; 10 g L-glutamine added to 60 mL Predonema Enema, Day 15 to Day 28, oral 5-ASA agent): improving effect of blood feces was recognized
frequency of bowel movements ([2]; 10 g of L-glutamine via the large intestinal route to humans): frequency of bowel movements increases
frequency of bowel movements (summary of Table 1) [3, 5]: maintained the frequency of bowel movements
improvement in blood feces (summary of Table 1) [3, 5]: improvement in blood feces was recognized in all cases
diarrhea (summary of Table 1) ([3]; 2 g L-glutamine enema, as shown in Case Nos. 4 and 5): able to improve diarrhea
cases in which the blood feces improved [3, 6]: 3 out of 7
improvement rate (blood feces) [3, 6]: 43%
Blood feces score, Aft. admin. ([3]; 2 g L-glutamine in 60 mL enema, admin. period 14-39 per case, oral 5-ASA agent, single patient, average per day, no blood feces: 0, less: 1, a lot: 3): 1.3 and 1.0 (2×) and 0.8 and 0.9
Freq. of bowel movement, Aft. admin. ([3]; 2 g L-glutamine in 60 mL enema, large intestinal route, admin. period 14-39 per case, all with oral 5-ASA agent, single patient): 5.0 per a day and 5.3 per a day and 2.3 per a day and 13.9 per a day and 14.1 per a day
freq. of diarrhea, Aft. admin. ([3]; 2 g L-glutamine in 60 mL enema, large intestinal route, admin. period 14-39 per case, all with oral 5-ASA agent, single patient, number in ( )): 0.1 per a day and 0.4 per a day and 0.0 per a day (2×) and 2.6 per a day
course of administration (stopped for aggravation of symptoms after starting administration) ([3]; 2 g L-glutamine in 60 mL sterilized water enema, oral 5-ASA agent, single patient): Stopped for aggravation
Freq. of bowel movement, Bef. admin. ([3]; baseline before administration, single patient (Case No.), average value per day of the period): 4.5 per a day and 5.4 per a day and 2.5 per a day and 4.2 per a day and 6.7 per a day
freq. of diarrhea, Bef. admin. ([3]; baseline before administration, single patient (Case No.), number in ( )): 2.0 per a day and 0.9 per a day and 0.0 per a day (2×) and 1.5 per a day
Blood feces score, Bef. admin. ([3]; baseline before administration, single patient, average per day, no blood feces: 0, less: 1, a lot: 3): 2.2 and 1.3 (2×) and 0.8 and 1.0
effectiveness in animal enteritis models (rat models of TNBS): effective
effectiveness against epithelial injuries in the upper digestive tracts [4]: effective
